# Reference: patent US9926324B2, “Heteroaromatic compounds as PI3 kinase modulators and methods of use” (Calitor Sciences, LLC, priority 2012, dated 2018)
# Like-named read-outs stand apart in the source and are kept apart here.
# Tests used:
# [1] = Compound stability in rat liver microsomes; format: in vitro ADME; settings: for half-life at 5 μM / CLint scaled at 5 μM: pH 7.4; for half-life at 5 μM: read-out: Rat T1/2; for CLint scaled at 5 μM: rat liver microsomes, in vivo CLint extrapolated
# Method: (§1) Human or rat liver microsomes incubations were conducted in duplicate in polypropylene tubes. The typical incubation mixtures consisted of human or rat liver microsomes (0.5 mg protein/mL), compounds of interest (5 μM) and NADPH (1.0 mM) in a total volume of 200 μL potassium phosphate buffer (PBS, 100 mM, pH=7.4). Compounds were dissolved in DMSO and diluted with PBS such that the final concentration of DMSO was 0.05%. The enzymatic reactions were commenced with the addition of […] after a 3-min preincubation and incubated in a water bath open to the air at 37° C. Reactions were terminated at various time points (0, 5, 10, 15, 30, 60 min) by adding equal volume of ice-cold acetonitrile. The samples were stored at −80° C. until LC/MS/MS assays.
# (§2) The concentrations of compounds in the incubation mixtures of human or rat liver microsomes were determined by a LC/MS/MS method. The ranges of the linearity in the concentration range were determined for each tested compounds.
# (§3) A parallel incubation was performed using denatured microsomes as the negative control, and reactions were terminated at various time points (0, 15, 60 min) after incubation at 37° C.
# (§4) Dextromethorphan (70 μM) was selected as the positive control, and reactions were terminated at various time points (0, 5, 10, 15, 30, 60 min) after incubation at 37° C. Both positive and negative control samples were included in each assay to ensure the integrity of the microsomal incubation system.
# (§5) The concentrations of compounds in human or rat liver microsome incubations were plotted as a percentage of the relevant zero time point control for each reaction. The in vivo CLint were extrapolated (ref: Naritomi Y, Terashita S, Kimura S, Suzuki A, Kagayama A, Sugiyama Y. Prediction of human hepatic clearance from in vivo animal experiments and in vitro metabolic studies with liver microsomes from animals and humans. Drug Metabolism and Disposition 2001, 29: 1316-1324).
# [2] = Pharmacokinetic profiles in rats after intravenous and oral administration; format: in vivo; settings: for F: oral dose generally 5 or 10 mg/kg; for AUC(0-t) / half-life / Vd: rat, plasma; for Vd: read-out: Vss
# Method: The compounds disclosed herein are assessed in pharmacokinetic studies in mice, rats, dogs or monkeys. The compounds are administered as a water solution, 2% HPMC+1% TWEEN® 80 in water solution, 5% DMSO+5% solutol in saline, 4% MC suspension or capsule. For the intravenous administration, the animals are generally given at 1 or 2 mg/kg dose. For the oral (p.o.) dosing, mice and rats are generally given 5 or 10 mg/kg dose, and dogs and monkeys are generally given 10 mg/kg dose. The blood samples (0.3 mL) are drawn at 0.25, 0.5, 1.0, 2.0, 3.0, 4.0, 6.0, 8.0, 12 and 24 h time points or 0.083, 0.25, 0.5, 1.0, 2.0, 4.0, 6.0, 8.0 and 24 h time points and centrifuged at 3,000 or 4000 rpm for 2 to 10 min. The plasma solutions are collected, stored at −20° C. or −70° C. until analyzed by LC/MS/MS as described above.
# [3] = Compound stability in human liver microsomes; format: in vitro ADME; settings: for half-life at 5 μM / CLint scaled at 5 μM: pH 7.4; for half-life at 5 μM: read-out: Human T1/2; for CLint scaled at 5 μM: human liver microsomes, in vivo CLint extrapolated
# Method: as §1, §2, §3, §4, §5
# [4] = test system: U87MG glioblastoma cells; assay: Tumor xenograft model (U87MG), tumor growth inhibition; format: in vivo, athymic nude mice; settings: 12 days
# Method: The efficacy of compounds disclosed herein was evaluated in a standard murine model of tumorigenesis. Human tumor cells (U87MG glioblastoma cells from ATCC) were expended in culture, harvested, and injected subcutaneously onto the rear flank of 6-7 week old female athymic nude mice (BALB/cA nu/nu, Hunan SLAC Laboratory Animal, Co.) (n=6-10 for vehicle group and for each dosing group). When tumors reached a volume of 100-250 mm^3, animals were randomly divided into vehicle control (for example, 5% DMSO+70% Captisol® (30%), 7% HCl (pH1), 18% Captisol® (30%); or 7% DMSO, 7% HCl (pH1), 70% Captisol® (30%), 16% Captisol® (30%), or the like) and compound groups. Subsequent administration of compound by oral gavage begins anywhere from day 0 to day 15 post tumor cell challenge and generally continues with once a day for the duration of the experiment.
# Progression of tumor growth is assessed by tumor volumes and recorded as a function of time. The long (L) and short (W) axes of the subcutaneous tumors were measured with calipers twice weekly, and the tumor volume (TV) calculated as (L×W^2)/2). TGI was calculated from the difference between the median tumor volumes of vehicle-treated and drug-treated mice, expressed as a percentage of the median tumor volume of the vehicle-treated control group, by the following relation:
# Initial statistical analysis is done by repeated measures analysis of variance (RMANOVA), followed by Scheffe psot hoc testing for multiple comparisons. Vehicle alone (5% DMSO+70% Captisol® (30%), 7% HCl (pH1), 18% Captisol® (30%); or 7% DMSO, 7% HCl (pH1), 70% Captisol® (30%), 16% Captisol® (30%), or the like) is the negative control.
# [5] = biological target: T1, PI3K p110α/p85α (h) (Homo sapiens, UniProt P42336); assay: PI3K p110α/p85α (h) non-radioactive HTRF assay; format: biochemical
# T1 construct: purchased Millipore UK Ltd (assay service)
# T1 sequence (P42336 whole entry): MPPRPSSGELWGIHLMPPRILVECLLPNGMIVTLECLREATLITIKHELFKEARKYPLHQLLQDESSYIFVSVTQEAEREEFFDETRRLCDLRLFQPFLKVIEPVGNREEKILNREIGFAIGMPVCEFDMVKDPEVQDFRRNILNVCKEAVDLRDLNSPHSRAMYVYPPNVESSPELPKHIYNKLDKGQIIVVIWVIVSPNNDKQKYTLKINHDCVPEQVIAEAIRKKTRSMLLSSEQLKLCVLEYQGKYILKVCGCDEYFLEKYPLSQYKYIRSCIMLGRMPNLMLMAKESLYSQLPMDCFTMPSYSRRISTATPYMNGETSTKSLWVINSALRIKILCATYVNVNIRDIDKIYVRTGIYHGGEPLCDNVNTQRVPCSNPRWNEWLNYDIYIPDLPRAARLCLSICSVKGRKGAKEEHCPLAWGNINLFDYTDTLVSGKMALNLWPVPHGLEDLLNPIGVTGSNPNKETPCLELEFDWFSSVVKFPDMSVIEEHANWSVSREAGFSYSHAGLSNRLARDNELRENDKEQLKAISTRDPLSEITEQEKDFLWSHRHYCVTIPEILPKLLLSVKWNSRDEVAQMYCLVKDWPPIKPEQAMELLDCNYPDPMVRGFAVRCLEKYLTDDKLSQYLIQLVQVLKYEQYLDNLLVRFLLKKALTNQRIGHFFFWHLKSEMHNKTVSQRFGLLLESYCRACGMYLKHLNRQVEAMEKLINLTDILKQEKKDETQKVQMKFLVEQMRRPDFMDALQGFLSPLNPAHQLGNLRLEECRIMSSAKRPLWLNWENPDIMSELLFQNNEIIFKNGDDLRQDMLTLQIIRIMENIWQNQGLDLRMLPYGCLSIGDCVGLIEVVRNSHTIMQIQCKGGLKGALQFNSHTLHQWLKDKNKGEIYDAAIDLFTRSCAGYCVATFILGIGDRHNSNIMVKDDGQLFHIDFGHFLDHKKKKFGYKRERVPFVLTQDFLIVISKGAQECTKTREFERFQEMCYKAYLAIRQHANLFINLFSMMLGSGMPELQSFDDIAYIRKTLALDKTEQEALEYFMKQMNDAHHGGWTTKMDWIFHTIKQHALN
# T1 sequence (P27986 whole entry partner): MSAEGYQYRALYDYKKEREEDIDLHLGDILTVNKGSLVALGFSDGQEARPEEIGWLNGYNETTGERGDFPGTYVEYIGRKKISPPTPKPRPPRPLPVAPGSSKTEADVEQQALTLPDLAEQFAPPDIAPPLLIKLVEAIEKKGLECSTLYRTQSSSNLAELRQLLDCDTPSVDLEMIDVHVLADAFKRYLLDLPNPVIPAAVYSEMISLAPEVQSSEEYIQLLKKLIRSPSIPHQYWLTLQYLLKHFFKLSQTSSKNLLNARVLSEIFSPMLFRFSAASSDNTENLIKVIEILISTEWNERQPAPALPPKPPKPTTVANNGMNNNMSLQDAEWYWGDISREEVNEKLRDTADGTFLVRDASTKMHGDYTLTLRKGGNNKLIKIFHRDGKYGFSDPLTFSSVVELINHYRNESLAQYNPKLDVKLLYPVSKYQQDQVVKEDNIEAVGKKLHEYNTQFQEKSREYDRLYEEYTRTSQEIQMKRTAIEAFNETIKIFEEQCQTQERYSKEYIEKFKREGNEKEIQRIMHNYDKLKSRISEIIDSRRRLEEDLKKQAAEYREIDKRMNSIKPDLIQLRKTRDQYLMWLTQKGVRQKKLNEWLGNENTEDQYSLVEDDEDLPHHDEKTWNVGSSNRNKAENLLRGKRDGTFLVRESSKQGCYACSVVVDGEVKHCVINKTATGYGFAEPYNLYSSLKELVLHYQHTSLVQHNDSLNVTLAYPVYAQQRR
# Method: PI3K p110α/p85α (h) is incubated in assay buffer containing 10 μM phosphatidylinositol 4,5-bisphosphate and MgATP (concentration as required). The reaction is initiated by the addition of the ATP solution. After incubation for 30 minutes at room temperature, the reaction is stopped by the addition of stop solution containing EDTA and biotinylated phosphatidylinositol-3,4,5-trisphosphate. Finally, detection buffer is added, which contains europium-labelled anti-GST monoclonal antibody, GST-tagged GRP1 PH domain and streptavidin allophycocyanin. The plate is then read in timeresolved fluorescence mode and the homogenous time-resolved fluorescence (HTRF) signal is determined according to the formula HTRF=10000×(Em665 nm/Em620 nm).
# The kinase assays described herein were performed at Millipore UK Ltd, Dundee Technology Park, Dundee DD2 1SW, UK.
# [6] = rat liver microsomes 0.5 mg protein/mL, compound 5 μM, NADPH 1.0 mM, 37° C.
# [7] = human liver microsomes 0.5 mg protein/mL, compound 5 μM, NADPH 1.0 mM, 37° C.
SMILES,"half-life at 5 μM [1, 6] [h]",CLint scaled at 5 μM [1] [mL/min/kg],F ([2]; iv dose 2 mg/kg) [%],Cl/F ([2]; iv dosing 2 mg/kg) [mL/min/kg],AUC(0-t) ([2]; iv dosing 2 mg/kg) [ng·h/mL],half-life ([2]; iv dosing 2 mg/kg) [h],Vd ([2]; iv dosing 2 mg/kg) [L/kg],"half-life at 5 μM [3, 7] [h]",CLint scaled at 5 μM [3] [mL/min/kg],TGI % U87MG ([4]; 1 mg/kg oral gavage) [%],TGI % U87MG ([4]; 3 mg/kg oral gavage) [%],TGI % U87MG ([4]; 10 mg/kg oral gavage) [%],IC50 [5] [nM],F ([2]; iv dose 1 mg/kg) [%],Cl/F ([2]; iv dosing 1 mg/kg) [mL/min/kg],AUC(0-t) ([2]; iv dosing 1 mg/kg) [ng·h/mL],half-life ([2]; iv dosing 1 mg/kg) [h],Vd ([2]; iv dosing 1 mg/kg) [L/kg],"Rat T1/2 [1, 6]","Human T1/2 [3, 7]"
"COc1ncc(-c2ccc3ncc(C#CC(C)O)n3n2)cc1NS(=O)(=O)c1ccc(F)cc1F (centres unmarked) [Ex. 10, 2,4-difluoro-N-(5-(3-(3-hydroxybut-1-yn-1-yl)imidazo[1,2-b]pyridazin-6-yl)-2-methoxypyridin-3-yl)benzenesulfonamide]",4.66,8.89,79.88,0.5,67000,4.27,0.14,8.79,3.3,32,44,65,3,–,–,–,–,–,–,–
"COc1ncc(-c2ccc3ncc(C#CC(C)(C)O)n3n2)cc1NS(=O)(=O)c1ccc(F)cc1F [Ex. 11, 2,4-difluoro N (5 (3 (3 hydroxy-3-methylbut-1-yn-1-yl)imidazo[1,2-b]pyridazin-6-yl)-2-methoxypyridin-3-yl)benzenesulfonamide]",–,–,–,–,–,–,–,–,–,–,–,–,8,115.8,0.33,40400,4.92,0.15,–,–
"CC#Cc1cnc2ccc(-c3cnc(OC)c(NS(=O)(=O)c4ccc(F)cc4F)c3)nn12 [Ex. 13, 2,4-difluoro-N-(2-methoxy-5-(3-(prop-1-yn-1-yl)imidazo[1,2-b]pyridazin-6-yl)pyridin-3-yl)benzenesulfonamide]",1.59,26.1,–,–,–,–,–,18.8,1.54,–,–,–,–,95.8,1.5,11300,3.08,0.32,–,–
"COc1ncc(-c2ccc3ncc(C#CC(C)(C)O)n3c2)cc1NS(=O)(=O)c1ccc(F)cc1F [Ex. 17, 2,4-difluoro-N-(5-(3-(3-hydroxy-3-methylbut-1-yn-1-yl)imidazo[1,2-a]pyridin-6-yl)-2-methoxypyridin-3-yl)benzenesulfonamide]",4.66,8.87,–,–,–,–,–,8.53,3.4,–,–,–,–,123.1,0.5,38700,5.3,0.17,–,–
"COc1ncc(-c2ccc3nnc(C#CC(C)O)n3c2)cc1NS(=O)(=O)c1ccc(F)cc1F (centres unmarked) [Ex. 23, 2,4-difluoro N (5 (3 (3 hydroxybut-1-yn-1-yl)-[1,2,4]-triazolo[4,3-a]pyridin-6-yl)-2-methoxypyridin-3-yl)benzenesulfonamide]",–,–,–,–,–,–,–,–,–,–,–,–,–,5.9,30.2,561,0.15,0.19,∞,∞
